These results are taken from US10053452B2 (AMGEN INC., priority 2013, dated 2018).

Each structure is given as a SMILES string.

As usually defined, the IC50 is the concentration that gives 50% inhibition.

The test system of data set [1] is p-Histone H3. The experiment in a line: p-Histone H3 in HeLa cells. To be noted: Homo sapiens, read-out: IC50 p-Histone H3.
The subject of data set [2] is p-Histone H3. The experiment in a line: p-Histone H3 in Jurkat cells. The following applies: Homo sapiens, read-out: IC50 for p-Histone H3.
In data set [3] the test system is stage IV solid endometrial cancerous tumor. Kind of data set: Human Ph I clinical trial, tumor response: endometrial tumor. To be noted: same endometrial tumor; 30 mg once daily; week 16, eight cycles; CT, RECIST 1.1.
Excerpt: FIGS. 31A and 31B are measurements of the same endometrial solid tumor depicted in FIGS. 30A and 30B, but with its size shown as measured alone the short axis by CT and calculated using RECIST 1.1.
Data set [4] is described as follows: Solubility of salt/crystal forms in 0.01N HCl over 24 hrs. The format is physicochemical. The following applies: slurry. As to the method:
(§1) An excess of solid material was stirred at 25° C. or 55° C. for 18-24 hrs in aqueous media, excipients or solvents as noted. At the appropriate time point, an aliquot of the sample was centrifuged. The supernatant was filtered through a PTFE syringe filter and analyzed by HPLC versus a standard curve. The solid was then analyzed by XRPD for identification of the form.

Data set [5] in a line: Relationship / interconversion between bismesylate crystalline forms. The format is physicochemical. The text has this:
AMG 900 bismesylate salt crystalline From A was identified as a dihydrate; AMG 900 bismesylate salt crystalline From B was identified as a dihydrate; AMG 900 bismesylate salt crystalline From C was identified as a monohydrate; and AMG 900 bismesylate salt crystalline From D was identified as a monohydrate. […].

Data set [6] can be described thus: Solubility studies in aqueous media, excipients or solvents (18-24 hrs, HPLC; solid form by XRPD). To be noted: water. It is filed as physicochemical. The method, then:
as §1

A further data set in a line: Dog pK study. To be noted: dogs. The format is in vivo. The text has this:
To this end, a various crystalline forms of different pharmaceutically acceptable salts of AMG 900 were investigated and made.

Take `Cc1csc(-c2nnc(Nc3ccc(Oc4ncccc4-c4ccnc(N)n4)cc3)c3ccccc23)c1` [AMG 900, N-(4-((3-(2-amino-4-pyrimidinyl)-2-pyridinyl)oxy)phenyl)-4-(4-methyl-2-thienyl)-1-phthalazinamine]: the IC50 in the data set on p-Histone H3 [1] (1 h) was determined as 59 nM; in the data set on p-Histone H3 [1] it was 238 nM; in the data set on p-Histone H3 [2] (1 h), 66 nM; with p-Histone H3 [2] (24 h), 4 nM. For the same compound, the “reduction of short axis diameter” value in data set [3] is “up to 40%”.

As to `Cc1csc(-c2nnc(Nc3ccc(Oc4ncccc4-c4ccnc(N)n4)cc3)c3ccccc23)c1` [bismesylate dihydrate form A, N-(4-((3-(2-amino-4-pyrimidinyl)-2-pyridinyl)oxy)phenyl)-4-(4-methyl-2-thienyl)-1-phthalazinamine], the “solubility versus AMG 900 free base crystalline form A” value in data set [4] was “significant improvement in solubility”. The “form conversion over time” value in data set [5] (room temperature in a capped vial) was “converts to form B”.

In the case of `Cc1csc(-c2nnc(Nc3ccc(Oc4ncccc4-c4ccnc(N)n4)cc3)c3ccccc23)c1` [N-(4-((3-(2-amino-4-pyrimidinyl)-2-pyridinyl)oxy)phenyl)-4-(4-methyl-2-thienyl)-1-phthalazinamine], in data set [5], the “stability of the crystalline form” value is “unstable”. Also, the “form conversion at room temperature” value in data set [5] (room temperature, normal humidity) is recorded as “converts back to crystalline Form B”.

As for `Cc1csc(-c2nnc(Nc3ccc(Oc4ncccc4-c4ccnc(N)n4)cc3)c3ccccc23)c1` [bismesylate monohydrate form C, N-(4-((3-(2-amino-4-pyrimidinyl)-2-pyridinyl)oxy)phenyl)-4-(4-methyl-2-thienyl)-1-phthalazinamine], in data set [5] (relative humidity at or greater than 50%), the “form conversion with an increase in humidity” value was “convert to the dihydrate form B”.

Turning to `Cc1csc(-c2nnc(Nc3ccc(Oc4ncccc4-c4ccnc(N)n4)cc3)c3ccccc23)c1` [free base crystalline form A of AMG 900, N-(4-((3-(2-amino-4-pyrimidinyl)-2-pyridinyl)oxy)phenyl)-4-(4-methyl-2-thienyl)-1-phthalazinamine], the solubility in water entry in data set [6] is “poorly soluble”. Besides, the bioavailability in dogs entry in the data set “Dog pK study” is on record as “low”.
